# Laboratory results from patent US9835614B2, “Measurement of cell growth and drug susceptibility by resonant mass measurement” (Affinity Biosensors, LLC, priority 2013, dated 2017).
# Tested on: E. coli
# Test: Resonant mass measurement of growth of E. coli cultures with antibiotics
# Format: cell-based
smiles,measurement,setting,value
CC1(C)S[C@@H]2[C@H](NC(=O)[C@H](N)c3ccccc3)C(=O)N2[C@H]1C(=O)O [ampicillin],time development of mass and number of microbes in culture (FIG. 4),"E. coli in nutrient broth containing 64 μg/ml, cultures measured cyclically via selection valve",grow robustly
same,"microbe number concentration growth curve (number of microbes per ml, FIG. 5(a))","E. coli, 64 μg/ml, concentration calculated in each time interval",begins at about one hour
same,diagnostic susceptibility of the E. coli strain,at the measured concentration (64 μg/ml),resistant
